± gives the expanded uncertainty stated by the source.
Conditions: Crystal; Boetius hot stage apparatus

Normal melting temperature: -11 ± 6 °C
SMILES: CNC(=O)[C@H](Cc1cnc[nH]1)NC(C)=O [N-acetyl-N'-methyl-L-alpha-histidinamide]

Reference: the NIST ThermoML archive (doi:10.1016/j.tca.2009.12.017)
